Results published in ChEMBL document CHEMBL1134303, “Systematic structure-based design and stereoselective synthesis of novel multisubstituted cyclopentane derivatives with potent antiinfluenza activity” (J Med Chem, 2001).

Target: Neuraminidase (Influenza A virus (A/Puerto Rico/8/1934(H1N1)), UniProt P03468)
Test: Inhibitory activity against influenza A neuraminidase

Chain of Neuraminidase (Influenza A virus (A/Puerto Rico/8/1934(H1N1)), UniProt P03468) (P03468 whole entry): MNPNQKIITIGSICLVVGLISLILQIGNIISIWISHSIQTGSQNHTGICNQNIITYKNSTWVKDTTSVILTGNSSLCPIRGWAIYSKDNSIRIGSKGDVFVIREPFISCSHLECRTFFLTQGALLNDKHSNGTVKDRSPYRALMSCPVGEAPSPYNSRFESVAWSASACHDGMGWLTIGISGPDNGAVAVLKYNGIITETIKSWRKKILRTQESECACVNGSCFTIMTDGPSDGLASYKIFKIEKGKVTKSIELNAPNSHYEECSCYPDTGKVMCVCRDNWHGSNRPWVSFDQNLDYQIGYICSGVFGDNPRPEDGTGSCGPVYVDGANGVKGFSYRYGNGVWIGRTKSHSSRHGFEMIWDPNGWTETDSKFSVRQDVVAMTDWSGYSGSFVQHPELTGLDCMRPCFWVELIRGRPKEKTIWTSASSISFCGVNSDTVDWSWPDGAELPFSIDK

## CCC(CC)[C@H](NC(C)=O)[C@@H]1C[C@@H](C(=O)O)C[C@H]1N=C(N)N
  IC50: < 1 nM

## CCC(CC)[C@H](NC(C)=O)[C@@H]1[C@H](O)[C@@H](C(=O)O)C[C@H]1NC(=N)N [PERAMIVIR ANHYDROUS]
  IC50: < 1 nM
